Data taken from ChEMBL document CHEMBL5465560, “Selectivity Literature for EUbOPEN Chemogenomic Library” (2024).

Assays:
[1] = target: T1, Aurora kinase A (Homo sapiens) (UniProt O14965); details: at 10 µM
T1 sequence (whole entry): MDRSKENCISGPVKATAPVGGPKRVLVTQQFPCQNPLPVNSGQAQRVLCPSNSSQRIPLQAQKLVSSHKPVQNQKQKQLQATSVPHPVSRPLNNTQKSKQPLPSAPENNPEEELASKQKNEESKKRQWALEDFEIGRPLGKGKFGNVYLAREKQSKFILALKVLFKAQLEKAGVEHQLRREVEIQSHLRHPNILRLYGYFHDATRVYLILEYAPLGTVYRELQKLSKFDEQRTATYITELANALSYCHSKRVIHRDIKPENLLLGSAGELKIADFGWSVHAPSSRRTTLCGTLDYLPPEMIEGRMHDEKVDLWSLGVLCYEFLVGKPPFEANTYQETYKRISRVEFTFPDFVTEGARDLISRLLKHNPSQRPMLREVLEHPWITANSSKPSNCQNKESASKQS

[2] = target: Serine/threonine-protein kinase pim-1 (Homo sapiens, UniProt P11309); assay: Selectivity interaction (Ambit KINOMEscan and KiNATiv profiling in Jurkat cells) EUB0000090b PIM1; assay type: cell-based; details: at 1 µM
Chain of Serine/threonine-protein kinase pim-1 (P11309 whole entry, looked up): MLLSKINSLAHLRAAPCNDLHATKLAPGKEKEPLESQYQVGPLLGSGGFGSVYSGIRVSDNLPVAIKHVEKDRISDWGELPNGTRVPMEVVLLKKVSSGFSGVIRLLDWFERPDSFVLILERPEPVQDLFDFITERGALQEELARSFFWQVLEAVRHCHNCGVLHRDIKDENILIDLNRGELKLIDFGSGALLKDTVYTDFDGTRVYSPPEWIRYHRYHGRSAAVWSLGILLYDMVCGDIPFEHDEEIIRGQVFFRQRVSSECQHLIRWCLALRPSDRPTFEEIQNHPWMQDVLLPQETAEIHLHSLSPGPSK

[3] = target: T2, Dual specificity mitogen-activated protein kinase kinase 3 (Homo sapiens) (UniProt P46734); assay: Selectivity interaction (ActivX KiNativ screen (ex vivo kinase selectivity in human PBMCs)) EUB0001619a MAP2K3; assay type: cell-based; details: PBMC, at 1 µM
T2 sequence (whole entry): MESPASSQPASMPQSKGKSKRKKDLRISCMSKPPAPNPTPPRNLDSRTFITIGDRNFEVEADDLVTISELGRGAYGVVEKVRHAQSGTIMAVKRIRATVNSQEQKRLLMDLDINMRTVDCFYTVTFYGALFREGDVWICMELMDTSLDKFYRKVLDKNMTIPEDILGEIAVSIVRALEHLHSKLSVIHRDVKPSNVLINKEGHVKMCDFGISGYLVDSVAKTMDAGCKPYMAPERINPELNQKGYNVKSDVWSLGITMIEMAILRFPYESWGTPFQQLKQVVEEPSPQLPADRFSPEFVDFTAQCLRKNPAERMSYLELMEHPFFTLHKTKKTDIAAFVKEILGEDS

[4] = target: T3, Myosin-IIIb (Homo sapiens) (UniProt Q8WXR4); assay: Selectivity interaction (KinomeScan (DiscoverX)) EUB0000595a MYO3B; details: at 10 µM
T3 sequence (whole entry): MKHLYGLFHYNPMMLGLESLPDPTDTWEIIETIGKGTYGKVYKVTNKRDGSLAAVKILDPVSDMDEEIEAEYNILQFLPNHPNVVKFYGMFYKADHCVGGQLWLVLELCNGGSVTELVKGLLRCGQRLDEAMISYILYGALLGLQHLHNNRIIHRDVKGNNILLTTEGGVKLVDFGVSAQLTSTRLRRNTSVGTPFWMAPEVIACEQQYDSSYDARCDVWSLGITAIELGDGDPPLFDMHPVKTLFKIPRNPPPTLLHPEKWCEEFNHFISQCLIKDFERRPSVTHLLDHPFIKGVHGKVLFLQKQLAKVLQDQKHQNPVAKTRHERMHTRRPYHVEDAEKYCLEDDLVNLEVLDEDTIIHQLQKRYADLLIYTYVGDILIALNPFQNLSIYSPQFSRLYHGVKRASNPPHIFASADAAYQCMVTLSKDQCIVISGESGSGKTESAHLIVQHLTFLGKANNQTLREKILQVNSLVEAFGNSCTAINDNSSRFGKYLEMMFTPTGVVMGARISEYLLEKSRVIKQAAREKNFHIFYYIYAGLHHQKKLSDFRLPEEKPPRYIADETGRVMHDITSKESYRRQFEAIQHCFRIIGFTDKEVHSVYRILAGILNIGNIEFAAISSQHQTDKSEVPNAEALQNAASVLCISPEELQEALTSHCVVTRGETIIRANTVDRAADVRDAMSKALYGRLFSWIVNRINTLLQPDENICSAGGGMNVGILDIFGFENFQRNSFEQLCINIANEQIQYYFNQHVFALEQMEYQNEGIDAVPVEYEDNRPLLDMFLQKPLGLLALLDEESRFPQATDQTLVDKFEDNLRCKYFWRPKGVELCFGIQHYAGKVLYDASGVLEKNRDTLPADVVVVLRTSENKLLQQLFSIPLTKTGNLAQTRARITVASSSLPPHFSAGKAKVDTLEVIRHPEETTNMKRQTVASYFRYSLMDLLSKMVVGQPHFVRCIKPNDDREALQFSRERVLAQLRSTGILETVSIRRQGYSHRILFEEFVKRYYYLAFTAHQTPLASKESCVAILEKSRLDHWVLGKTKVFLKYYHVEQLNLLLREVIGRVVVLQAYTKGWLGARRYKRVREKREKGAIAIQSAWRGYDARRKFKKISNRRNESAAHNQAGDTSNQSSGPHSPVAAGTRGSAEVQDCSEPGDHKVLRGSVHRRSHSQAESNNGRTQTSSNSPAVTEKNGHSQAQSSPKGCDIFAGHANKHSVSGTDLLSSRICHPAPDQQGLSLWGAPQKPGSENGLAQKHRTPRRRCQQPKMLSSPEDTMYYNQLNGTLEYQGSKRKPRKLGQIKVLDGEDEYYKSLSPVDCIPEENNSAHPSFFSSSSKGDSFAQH

[5] = target: Serine/threonine-protein kinase tousled-like 2 (Homo sapiens) (UniProt Q86UE8); assay: Selectivity interaction (KinomeScan (DiscoverX)) EUB0000595a TLK2; details: at 10 µM
Chain of Serine/threonine-protein kinase tousled-like 2 (Homo sapiens) (Q86UE8 whole entry, looked up): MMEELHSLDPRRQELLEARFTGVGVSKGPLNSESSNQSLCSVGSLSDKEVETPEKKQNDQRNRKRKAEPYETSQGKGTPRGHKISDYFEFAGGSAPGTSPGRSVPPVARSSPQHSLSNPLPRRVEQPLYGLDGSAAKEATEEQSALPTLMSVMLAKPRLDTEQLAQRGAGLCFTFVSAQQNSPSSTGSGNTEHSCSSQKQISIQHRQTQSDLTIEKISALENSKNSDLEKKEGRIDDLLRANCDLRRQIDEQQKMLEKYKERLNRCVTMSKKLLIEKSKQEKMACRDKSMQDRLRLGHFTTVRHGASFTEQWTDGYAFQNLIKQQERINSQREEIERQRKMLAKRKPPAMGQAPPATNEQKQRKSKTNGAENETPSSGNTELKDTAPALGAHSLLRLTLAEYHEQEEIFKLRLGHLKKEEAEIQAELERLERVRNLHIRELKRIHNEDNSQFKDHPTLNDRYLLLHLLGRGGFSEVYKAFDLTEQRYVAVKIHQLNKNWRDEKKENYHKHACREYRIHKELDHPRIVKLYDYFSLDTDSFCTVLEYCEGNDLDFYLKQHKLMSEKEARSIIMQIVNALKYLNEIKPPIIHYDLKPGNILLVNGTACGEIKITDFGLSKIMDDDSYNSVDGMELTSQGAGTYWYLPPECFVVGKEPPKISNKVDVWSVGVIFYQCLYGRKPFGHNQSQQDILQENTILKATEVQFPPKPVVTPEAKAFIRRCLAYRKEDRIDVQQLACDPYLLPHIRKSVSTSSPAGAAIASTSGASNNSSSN

[6] = target: Receptor tyrosine-protein kinase erbB-2 (Homo sapiens, UniProt P04626); details: at 10 µM
[7] = target: Polycomb protein SUZ12 (Homo sapiens) (UniProt Q15022); details: at 1 µM
Chain of Polycomb protein SUZ12 (Homo sapiens) (Q15022 whole entry): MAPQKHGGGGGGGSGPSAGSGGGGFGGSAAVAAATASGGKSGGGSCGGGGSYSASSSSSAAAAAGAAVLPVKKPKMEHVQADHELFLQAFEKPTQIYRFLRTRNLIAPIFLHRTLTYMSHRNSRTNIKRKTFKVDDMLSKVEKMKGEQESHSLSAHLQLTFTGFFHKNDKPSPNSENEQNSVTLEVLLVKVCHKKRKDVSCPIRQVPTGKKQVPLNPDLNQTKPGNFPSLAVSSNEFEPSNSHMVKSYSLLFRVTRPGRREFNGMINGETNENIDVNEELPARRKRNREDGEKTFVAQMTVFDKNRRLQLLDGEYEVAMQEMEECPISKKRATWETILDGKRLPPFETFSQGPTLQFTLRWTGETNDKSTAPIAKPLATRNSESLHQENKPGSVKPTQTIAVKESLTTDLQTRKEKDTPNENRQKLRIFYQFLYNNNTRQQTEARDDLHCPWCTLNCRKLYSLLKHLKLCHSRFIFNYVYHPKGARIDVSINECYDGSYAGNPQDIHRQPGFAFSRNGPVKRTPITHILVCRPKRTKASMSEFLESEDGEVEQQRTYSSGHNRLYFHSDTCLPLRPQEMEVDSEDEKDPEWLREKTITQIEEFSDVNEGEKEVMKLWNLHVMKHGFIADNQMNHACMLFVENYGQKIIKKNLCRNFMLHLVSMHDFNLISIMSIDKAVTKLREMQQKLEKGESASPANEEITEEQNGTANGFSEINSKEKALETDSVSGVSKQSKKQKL

[8] = target: Ribosomal protein S6 kinase alpha-6 (Homo sapiens, UniProt Q9UK32); details: at 10 µM
Chain of Ribosomal protein S6 kinase alpha-6 (Q9UK32 whole entry): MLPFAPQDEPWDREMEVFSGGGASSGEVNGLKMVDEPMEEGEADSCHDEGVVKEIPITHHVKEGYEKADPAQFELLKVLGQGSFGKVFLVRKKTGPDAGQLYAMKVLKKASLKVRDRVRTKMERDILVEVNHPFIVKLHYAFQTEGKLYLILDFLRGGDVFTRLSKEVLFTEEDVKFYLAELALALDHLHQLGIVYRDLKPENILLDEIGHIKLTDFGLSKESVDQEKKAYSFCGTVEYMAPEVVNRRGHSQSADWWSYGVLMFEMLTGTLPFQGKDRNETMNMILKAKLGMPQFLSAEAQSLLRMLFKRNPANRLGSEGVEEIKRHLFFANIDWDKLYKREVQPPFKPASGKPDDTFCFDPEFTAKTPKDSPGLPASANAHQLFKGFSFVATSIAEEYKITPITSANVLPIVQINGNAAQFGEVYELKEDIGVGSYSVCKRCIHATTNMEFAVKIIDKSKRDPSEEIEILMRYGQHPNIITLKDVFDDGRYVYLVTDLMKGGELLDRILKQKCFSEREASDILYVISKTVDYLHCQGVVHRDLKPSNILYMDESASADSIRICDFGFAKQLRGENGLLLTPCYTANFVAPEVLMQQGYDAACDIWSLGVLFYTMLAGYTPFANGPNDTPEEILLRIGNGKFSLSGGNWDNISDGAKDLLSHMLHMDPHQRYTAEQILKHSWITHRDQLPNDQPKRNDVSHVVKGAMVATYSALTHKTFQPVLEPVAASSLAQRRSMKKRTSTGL

[9] = target: Serine/threonine-protein kinase B-raf (Homo sapiens) (UniProt P15056); assay: (§1) Selectivity interaction (LanthaScreen Eu Kinase Binding Assay) EUB0001632a BRAF; details: at 10 µM
Chain of Serine/threonine-protein kinase B-raf (Homo sapiens) (P15056 whole entry): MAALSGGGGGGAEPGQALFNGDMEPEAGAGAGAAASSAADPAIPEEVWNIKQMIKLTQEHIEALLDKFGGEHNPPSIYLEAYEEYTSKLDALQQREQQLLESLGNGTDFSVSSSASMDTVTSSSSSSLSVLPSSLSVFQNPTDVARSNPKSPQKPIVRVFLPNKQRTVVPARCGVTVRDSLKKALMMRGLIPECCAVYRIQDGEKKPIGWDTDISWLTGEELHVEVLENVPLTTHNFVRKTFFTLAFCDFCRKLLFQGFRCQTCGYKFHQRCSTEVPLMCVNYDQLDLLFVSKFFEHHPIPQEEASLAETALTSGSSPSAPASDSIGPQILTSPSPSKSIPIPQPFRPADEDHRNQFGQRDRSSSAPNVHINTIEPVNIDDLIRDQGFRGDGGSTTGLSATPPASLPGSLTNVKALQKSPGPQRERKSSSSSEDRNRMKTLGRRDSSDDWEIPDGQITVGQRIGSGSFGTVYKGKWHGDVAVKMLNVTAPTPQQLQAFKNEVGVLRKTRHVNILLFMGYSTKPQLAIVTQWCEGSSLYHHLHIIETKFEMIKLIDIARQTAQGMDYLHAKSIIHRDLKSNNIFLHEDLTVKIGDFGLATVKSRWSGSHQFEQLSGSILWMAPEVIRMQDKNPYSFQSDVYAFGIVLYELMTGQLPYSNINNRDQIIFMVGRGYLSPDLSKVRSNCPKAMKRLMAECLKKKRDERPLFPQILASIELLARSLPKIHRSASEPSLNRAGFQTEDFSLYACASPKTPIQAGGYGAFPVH

[10] = tested on: Serine/threonine-protein kinase B-raf (Homo sapiens), P15056 [V600E]; assay: as §1; details: at 10 µM
Chain of Serine/threonine-protein kinase B-raf (Homo sapiens), P15056 [V600E] (P15056 whole entry V600E): as the sequence (P15056 whole entry) above, with V600E counted along it

[11] = Selectivity interaction (KinomeScan (DiscoverX)) EUB0000695a PKNB; details: at 100 nM
[12] = target: Rho-associated protein kinase 1 (Homo sapiens) (UniProt Q13464); assay: Selectivity interaction (KinomeScan (DiscoverX)) EUB0000695a ROCK1; details: at 100 nM
Chain of Rho-associated protein kinase 1 (Homo sapiens) (Q13464 2-1354 limits assumed): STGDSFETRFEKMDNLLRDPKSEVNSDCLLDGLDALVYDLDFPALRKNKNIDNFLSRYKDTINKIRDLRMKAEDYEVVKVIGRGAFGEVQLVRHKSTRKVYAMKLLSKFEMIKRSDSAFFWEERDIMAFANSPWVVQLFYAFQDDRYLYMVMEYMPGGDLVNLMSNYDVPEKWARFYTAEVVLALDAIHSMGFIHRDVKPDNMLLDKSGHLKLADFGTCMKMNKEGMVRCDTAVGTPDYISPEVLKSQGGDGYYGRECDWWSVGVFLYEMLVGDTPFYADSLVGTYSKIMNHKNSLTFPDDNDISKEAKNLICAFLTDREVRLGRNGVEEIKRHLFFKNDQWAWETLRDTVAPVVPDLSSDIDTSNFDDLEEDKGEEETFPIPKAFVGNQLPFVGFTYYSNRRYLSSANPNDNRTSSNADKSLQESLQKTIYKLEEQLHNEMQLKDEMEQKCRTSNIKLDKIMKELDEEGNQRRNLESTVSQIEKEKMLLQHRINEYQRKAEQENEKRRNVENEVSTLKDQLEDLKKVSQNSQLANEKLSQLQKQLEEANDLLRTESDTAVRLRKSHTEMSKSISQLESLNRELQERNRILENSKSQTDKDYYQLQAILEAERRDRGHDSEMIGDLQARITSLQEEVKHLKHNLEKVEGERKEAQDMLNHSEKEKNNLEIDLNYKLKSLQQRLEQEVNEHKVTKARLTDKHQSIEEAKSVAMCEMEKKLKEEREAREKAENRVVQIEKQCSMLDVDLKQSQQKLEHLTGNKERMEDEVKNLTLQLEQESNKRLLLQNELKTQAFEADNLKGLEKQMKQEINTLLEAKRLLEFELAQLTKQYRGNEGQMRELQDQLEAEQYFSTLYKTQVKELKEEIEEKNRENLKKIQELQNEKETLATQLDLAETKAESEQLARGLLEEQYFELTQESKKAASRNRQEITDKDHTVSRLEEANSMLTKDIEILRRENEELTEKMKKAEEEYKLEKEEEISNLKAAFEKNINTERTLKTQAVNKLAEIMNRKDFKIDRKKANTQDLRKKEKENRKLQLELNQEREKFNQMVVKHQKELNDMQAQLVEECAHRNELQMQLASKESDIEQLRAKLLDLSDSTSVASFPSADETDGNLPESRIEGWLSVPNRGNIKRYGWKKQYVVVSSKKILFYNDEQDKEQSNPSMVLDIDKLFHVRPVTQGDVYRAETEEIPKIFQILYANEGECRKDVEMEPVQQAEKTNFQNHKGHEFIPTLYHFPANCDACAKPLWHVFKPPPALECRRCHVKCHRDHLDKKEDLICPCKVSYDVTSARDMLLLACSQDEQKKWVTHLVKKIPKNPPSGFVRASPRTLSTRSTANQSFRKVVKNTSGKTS

Compound `CCN(CC)CCCCNc1ncc2cc(-c3cc(OC)cc(OC)c3)c(NC(=O)NC(C)(C)C)nc2n1` has a % of control [1] of 100%.

For `CN(C)C/C=C/C(=O)Nc1ccc(C(=O)N2CCCC(Nc3ncc(Cl)c(-c4c[nH]c5ccccc45)n3)C2)cc1` (configuration not stated), the % of control [2] was 100%.

In the case of `N#Cc1cccc(-c2c[nH]c3ncnc(N4CCOCC4)c23)c1`, the % of inhibition [3] is reported as -5%.

In the case of `COCC(=O)NC/C=C/c1ccc2ncnc(Nc3ccc(Oc4ccc(C)nc4)c(C)c3)c2c1` [CP-724714], the % of control [4] is reported as 100%, the % of control [5] is reported as 100% and the % of control [6] is reported as 0%.

Work on `CNCCN1CCC(c2cc(CN(C)C(=O)c3cccc(Oc4ccccc4)c3)ccn2)CC1` yielded a % activity [7] of over 90%.

`Cc1cc([C@@H](C)Nc2ccccc2C(=O)O)c2nc(N3CCOCC3)cc(=O)n2c1` [AZD-6482] showed a % of control [8] of 100%.

Compound `Cn1cc(-n2cnc3c(NCc4nc5cc(Cl)c(Cl)cc5[nH]4)nc(N4CCOCC4)nc32)cn1` has a % of inhibition [9] of 5.68% and a % of inhibition [10] of 9.14%.

For `Cc1cc(F)c(C(=O)Nc2cccc(-c3nncn3C(C)C)n2)cc1-n1cnc(C2CC2)c1`, the % of control [11] was 100% and the % of control [12] was 99%.
